Measurements from article PMC12040169 (PLOS Biology, 2025).

assay: in vitro; settings: human, hela cells, % viability

Row | SMILES | viability at 28.5 h, 10 µM
1 | Cc1nc(-c2ccccc2)sc1C(=O)C1=C(O)C(=O)N(CCCN2CCOCC2)C1c1ccco1 (stereo not shown) [CBK266476] | 111%
2 | CCCCC(=O)N(C)c1c(C)nc2ccc(C(=O)NCc3cccs3)cn12 [CBK147073] | 103%
3 | S=C1NC2(CCCCC2)NC12CCCCC2 [CBK006533] | 98.5%
4 | Oc1ccc(-c2oncc2-c2ccccc2)c(O)c1 [CBK288228] | 96.2%
5 | CC1CN(Cc2c(C(C)C)[nH]c3ncccc23)CC(C)O1 (stereo not shown) [CBK282900] | 93.7%
6 | CN(C)S(=O)(=O)Nc1ccc2[nH]ccc2c1 [CBK156321] | 92.2%
7 | Cn1cc(C2CCCN2C(=O)c2cccc(C#N)c2)cn1 (stereo not shown) [CBK304849] | 98%
8 | O=C(CCN1CCN(CCO)CC1)Nc1ccc(Cl)cc1 [CBK033787] | 101%
9 | Cc1nc(CCNCc2c(C(C)C)nn(C)c2N(C)C)cs1 [CBK304002] | 98.8%
10 | O=C(Nc1cccnc1N1CCNCC1)c1cccnc1 [CBK029426T] | 120%
11 | Cc1cccc(C)c1NC(=S)N1CCC2(CC1)OCCO2 [CBK016408] | 117%
12 | CCN1CCN(c2ccc(NC(=O)c3cc(-n4cnnc4)ccc3Cl)cc2Cl)CC1 [CBK269343] | 88.1%
13 | O=C1/C(=N\Nc2ccc([N+](=O)[O-])cc2[N+](=O)[O-])c2cc(Br)ccc2N1CN1CCCCC1 [CBK260927] | 110%
14 | Nc1ccc(-c2ccc3c(c2)OCCCO3)c2ccccc12 [CBK084325] | 87.9%
15 | Cc1cc(Cl)cc(Cl)c1S(=O)(=O)Nc1nc(-c2cccnc2)cs1 [CBK200035] | 105%
16 | COc1ccc(CC(=O)Nc2nc(OCC(F)(F)F)cnc2-c2ccc(Cl)cc2Cl)cc1 [CBK145359] | 91%
17 | Cc1cc(=O)n2c3c(cc(S(=O)(=O)NC4CC4)cc13)CCC2 [CBK307572] | 87%
18 | Cc1ccc(Cn2nnc3c(O)nc(C4CCN(C(=O)CC(C)(C)C)CC4)nc32)cc1 [CBK293970] | 91.2%
19 | CCn1c2cc(C)oc2c2cnn(CC(=O)N3CCCC3)c(=O)c21 [CBK284215] | 101%
20 | COC(=O)c1c(NC(=O)COc2ccc(Br)cc2)sc2c1CCC2 [CBK263369] | 89.9%
21 | COc1cc(-c2nc(S(=O)(=O)c3ccccc3)c(N3CCOCC3)o2)cc(OC)c1OC [CBK074539] | 90.1%
22 | Cc1[nH]c(=O)c(C#N)cc1C(=O)N(C)Cc1cc(-c2ccncc2)no1 [CBK306859] | 113%

Row | SMILES | viability at 28.5 h, 10 µM
23 | CS(=O)(=O)c1ccc(Cn2ccnc(N3CCN(C(=O)c4ccc5occc5c4)CC3)c2=O)cc1 [CBK153777] | 90.8%
24 | CC12CCC(C(=O)O)(C/C1=N\N)C2(C)C (stereo not shown) [CBK265268] | 113%
25 | COc1ccc(-c2cc(C3CCCCCN3)no2)cc1 (stereo not shown) [CBK285399] | 96.5%
26 | COc1cc(/C=N/CC/N=C/c2ccc(O)c(OC)c2)ccc1O [CBK262015] | 106%
27 | CN(Cc1ccc(-c2ccc(S(C)(=O)=O)cc2)nc1)C1CCN(C(=O)Cc2cccc(C(F)(F)F)c2)CC1 [CBK164104T] | 90.2%
28 | CCCC/C=C/c1cncc(NCCc2c[nH]c3ccccc23)n1 [CBK066081] | 100%
29 | CCOC(=O)N1CCN(C(=O)c2c(C)nn(C)c2Cl)CC1 [CBK304522] | 92.6%
30 | FC(F)(F)c1nnc2ccc(-n3ccnc3)nn12 [CBK020041] | 96.1%
31 | CCOC(=O)c1cnn(C2CCCN(Cc3cccs3)C2)c1 (stereo not shown) [CBK305121] | 99.5%
32 | COc1ccc(NS(=O)(=O)c2cc(C(=O)O)sc2Br)cn1 [CBK297943] | 81.8%
33 | Cc1nn(C)c(C)c1CN(C)C(=O)CCC1CCCO1 (stereo not shown) [CBK283078] | 99.7%
34 | O=C(O)CC(CC(=O)N1CCN(Cc2ccc3c(c2)OCO3)CC1)c1ccccc1 (stereo not shown) [CBK074769] | 96%
35 | O=C(Nc1ccc(S(=O)(=O)N2CCCCC2)cc1)c1ccc(CN2CCc3ccccc3C2)cc1 [CBK263993] | 90.7%
36 | COc1nc(N)nc2c1ncn2C1CC(O)C(CO)O1 (stereo not shown) [CBK201314] | 89.4%
37 | Cc1cc(C)cc(NC2=N[C@H]3[C@@H](O)[C@H](O)C[C@H](C(=O)N4CCCCC4)[C@H]3S2)c1 [CBK288952] | 90%
38 | CCN1CCCC1CN(Cc1cccs1)Cc1cnc(C)n1C (stereo not shown) [CBK282603] | 91.5%
39 | Nc1nonc1C(=NCc1ccccc1)NO [CBK261109] | 105%
40 | Cn1c(NC(=O)CSc2nnc(Cc3cccc4ccccc34)o2)cc(=O)n(C)c1=O [CBK266055] | 115%
41 | O=C1CC(c2ccccc2)CC(=O)C1=CNCCN1CCOCC1 (stereo not shown) [CBK262522] | 94%
42 | O=C(O)CCSc1nnnn1-c1ccccc1 [CBK287217] | 88.4%
43 | COc1ccc(-c2cc(-c3c(O)ccc4c(C)cc(=O)oc34)nc(N)n2)cc1OC [CBK074619] | 85%
44 | COCCc1noc(CC2CCN(c3ccc(Cl)c(C#N)n3)CC2)n1 [CBK304177] | 97.5%

Row | SMILES | viability at 28.5 h, 10 µM
45 | COCCCn1c(=O)[nH]c2ncc(-c3cc(C(C)C)ccc3OC)nc21 [CBK064351] | 82.8%
46 | CCn1c(CN2CCOCC2)nnc1SCC(=O)Nc1cccc(Br)c1 [CBK269740] | 85.6%
47 | Cc1ccc(S(=O)(=O)NC(C)(C)CSc2nnc[nH]2)cc1 [CBK268374] | 81.5%
48 | CC(=O)Nc1cccc(C(=O)N2CCOC(CCc3ccccc3)C2)c1 (stereo not shown) [CBK304629] | 88.7%
49 | O=C1CCN(Cc2ccccc2)CCN1C(=O)C1CCCC1 [CBK284829] | 85.7%
50 | O=C(O)C1CC=CCC1C(=O)Nc1ccc(S(=O)(=O)N2CCCc3ccccc32)cc1 (stereo not shown) [CBK268179] | 94.8%
51 | Clc1ccc(OCCOc2ccccc2)nn1 [CBK176034] | 86.7%
52 | OCCNCCNCc1ccc(-c2ccccc2)cc1 [CBK278269C] | 115%
53 | Cc1ccc(-c2nc3cc(Cl)ccc3o2)cc1NC(=S)NC(=O)c1cccc(Cl)c1 [CBK264022] | 108%
54 | O=C(NC(c1ccc(-c2ccccc2)cc1)c1cnccn1)C1CCN(C/C=C/c2ccccc2)CC1 (stereo not shown) [CBK147984] | 104%
55 | OC1(c2ccc(F)cc2)COC2(CCNCC2)C1 (stereo not shown) [CBK284214] | 93.6%
56 | O=C(NCCCO)C1CCCN(S(=O)(=O)c2ccc3ccccc3c2)C1 (stereo not shown) [CBK270141] | 88.3%
57 | Cc1noc(C)c1C(=O)NCCc1ccc(S(N)(=O)=O)cc1 [CBK268143] | 104%
58 | CCOC(=O)[C@@]12CC=CCN(C(=O)c3cccnc3)[C@@H]1CCC2 [CBK284575] | 90.8%
59 | Nc1cccc(-c2cn(C[C@H]3CC4CCN3C[C@@H]4C(=O)NCc3cccnc3)nn2)c1 (stereo partly shown) [CBK289088] | 84.3%
60 | COc1nc(NCc2ccco2)nc(OC)n1 [CBK027479] | 86.4%
61 | CC1CCC(C(N)=O)CN1C(=O)c1csc(Br)c1 (stereo not shown) [CBK305812] | 92.3%
62 | O=C(Nc1nccs1)c1c(O)n(Cc2ccccc2)c2ccccc2c1=O [CBK291173] | 96.6%
63 | COC(=O)c1cn([C@H]2CO[C@H]3[C@@H]2OC[C@@H]3NC(=O)Nc2ccc(OC)cc2)nn1 [CBK289500] | 94.2%
64 | Cc1cccc(C(C)(C)C)c1OCCCCNCCN [CBK265092G] | 110%
